Measurements published in paper PMC12610573, “New Chlormequat-Based Ionic Liquids as Plant Resistance Inducers” (Molecules, 2025).

Key:
[1] = test system: Tobamovirus tabaci (tobacco mosaic virus, TMV) on Nicotiana tabacum cv. Xanthi; assay: SAR induction assay: necrotic area after TMV inoculation of sprayed tobacco; format: in vivo; conditions: for SAR Induction (percentage of necrotic area on leaves): TMV inoculation after 7 days, read 7 days later, UTC 34.54; for pest or weed control at 125 µg/mL / pest or weed control at 250 µg/mL: topical, read-out: Reduction in Necrotic Area; for pest or weed control at 125 µg/mL / pest or weed control at 250 µg/mL / Reduction in Necrotic Area: compared with untreated control plants; for Percentage of necrotic spot coverage (leaf shown in supplementary figure): single leaf image
Experimental: Plants of Nicotiana tabacum cv. Xanthi were grown under greenhouse conditions at 25 °C and 50% relative humidity, under natural daylight during the May–August growing season, with a natural photoperiod. The plants were sprayed with solutions containing the tested compounds.
In all experiments, the TMV SL-1 isolate Tobamovirus (TMV) was used. To obtain a viral inoculum, Nicotiana tabacum cv. Samsun plants were sap-inoculated with previously virus-infected plant material. After the appearance of disease symptoms on the infected plants (leaf mosaic), the virus was isolated by sucrose density gradient centrifugation with 0.01 M Tris-HCl, pH 7.0, to prepare the infectious inoculum. The concentration of virus in the obtained preparation was determined spectrophotometrically. The samples of TMV were stored at −20 °C until use.
The tested active substances at a given concentration were sprayed on tobacco plants with three fully developed leaves. The volume of working solution used was equal to 10 mL per plant. The compounds were dissolved in a water/propylene glycol solution (95/5, v/v). The plants of the untreated control variant were sprayed with a water/propylene glycol solution (95/5, v/v) that was used for the preparation of solutions of the tested compounds. After seven days, the plants were mechanically inoculated using purified viral preparations (0.01 ng/mL as described in [34]).
The plants were inoculated with the TMV inoculum at a concentration of 3.8 × 10^−4 ng per leaf. For each variant of treatment, 3 plants were sprayed, and 3 leaves of each plant were analyzed. The entire experiment was performed in 2 replicates. Necrotic areas on the leaves were determined using ImageJ software.
The surface of a leaf or an area with necrotic spots is represented by a set of pixels in the image, which are counted by the program. Reduction in necrotic area (ISAR) is expressed by the following formula:(1) ISAR=100−(At/Ac∗100) where At is the ratio of the area of necrotic spots caused by viral infection that appeared on the leaf treated with the test substance to the whole area of the leaf; Ac is the ratio of the area of the necrotic spots caused by viral infection that appeared on the leaf of the control plant to the whole area of the leaf.
(§1) Statistical significance of the effect of the treatments of plants with tested compounds on the phytotoxicity and SAR induction was assessed with the ANOVA test performed using the Statistica program StatSoft with software version 9.1 (StatSoft Sp. z o.o., Kraków, Poland). The statistical assumptions of normality and homogeneity of variances were verified prior to conducting the ANOVA tests. Differences between the means were estimated with Tukey’s HSD test at the significance level of p = 0.05.

[2] = test system: radish (Raphanus sativus) sprouts; assay: Phytotoxicity test on radish sprouts; format: in vivo; conditions: for Reduction in Sprout Mass: compared with untreated control; for Mass of 25 Sprouts: radish, 5 days, UTC 3.09 g; for Phytotoxic effect on radish sprout mass: versus control
Experimental: Twenty five seeds of radish (Raphanus sativus) were placed on a filter tissue in a Petri dish. […] Then, sprouts were weighted. All variants of treatment were tested together, with 3 replications (plates) in each of 2 cycles performed. Results were subjected to statistical analysis as described in Section 4.8.
as §1

[3] = Thermogravimetric analysis (TGA), thermal stability; conditions: TGA under nitrogen, 10 °C/min; for Thermal Stability T5%onset: 5% weight loss onset; for Thermal Stability Tonset: decomposition onset
Experimental: TGA was performed on a TGA Q50 (Texas Instruments, Dallas, TX, USA) under nitrogen. Samples (5–10 mg) were heated from 25 °C to 500 °C at 10 °C/min with an isothermal step at 85 °C for 10 min. T5%onset and Tonset values were recorded.

[4] = Solubility tests in representative solvents (Vogel protocol); conditions: 25 °C; for solubility: thermodynamic from solid
Experimental: The solubilities of the prepared ILs in ten representative solvents were determined according to the protocols from Vogel’s Textbook of Practical Organic Chemistry. The solvents chosen for the study were arranged in order of descending value of their Snyder polarity index: water—9.0, methanol—6.6, acetone—5.1, isopropanol—4.3, toluene—2.3, and hexane—0.0.

Row | Compound | SAR Induction (percentage of necrotic area on leaves) ([1]; 125 mg/L spray) | SAR Induction (percentage of necrotic area on leaves) ([1]; 250 mg/L spray) | pest or weed control at 125 µg/mL ([1]; 125 mg/L) | pest or weed control at 250 µg/mL ([1]; 250 mg/L) | Reduction in Sprout Mass ([2]; 125 mg/L) | Mass of 25 Sprouts ([2]; 125 mg/L) | Reduction in Sprout Mass ([2]; 250 mg/L) | Mass of 25 Sprouts ([2]; 250 mg/L) | Percentage of necrotic spot coverage (leaf shown in supplementary figure) ([1]; 125 mg/L) | Percentage of necrotic spot coverage (leaf shown in supplementary figure) ([1]; 250 mg/L) | Reduction in Necrotic Area ([1]; 125 mg/L) | Reduction in Necrotic Area ([1]; 250 mg/L) | Thermal Stability T5%onset [3] | Thermal Stability Tonset [3] | other results
1 | O=C(O)c1cc(Cl)nc(Cl)c1 [2,6-dichloroisonicotinic acid] | 18.15 cd B % | 14.90 f AB % | 47.5% | 56.9% | 40.29% | 1.85 ab B g | 54.31% | 1.41 d A g | – | – | – | – | – | – | –
2 | O=C(O)c1cc(Cl)cc(Cl)c1O [3,5-dichlorosalicylic acid] | 15.03 cd B % | 7.51 bcd A % | 56.5% | 78.3% | 32.96% | 2.07 bcd B g | 59.49% | 1.25 cd A g | – | – | – | – | – | – | –
3 | O=C(O)c1cccc(Cl)c1O [3-chlorosalicylic acid] | 4.95 a B % | 2.59 a AB % | 85.7% | 92.5% | 47.03% | 1.64 a B g | 72.65% | 0.85 a A g | 2.62% | 2.30% | – | – | – | – | –
4 | O=C(O)c1ccc(Cl)cc1O [4-chlorosalicylic acid] | 17.06 cd C % | 8.68 cde AB % | 50.6% | 74.9% | 46.55% | 1.65 a B g | 68.45% | 0.98 ab A g | – | – | – | – | – | – | –
5 | O=C(O)c1cc(Cl)ccc1O [5-chlorosalicylic acid] | 4.23 a B % | 3.28 ab AB % | 87.8% | 90.5% | 37.16% | 1.94 abc B g | 59.87% | 1.24 cd A g | 2.98% | 1.28% | – | – | – | – | –
6 | O=C(O)c1ccncc1 [Isonicotinic acid] | 31.12 gh B % | 25.58 g A % | 9.9% | 26% | 29.07% | 2.19 cde B g | 42.83% | 1.77 e A g | – | – | – | – | – | – | –
7 | O=C(O)c1cccnc1 [Nicotinic acid] | 27.69 fg C % | 22.07 g B % | 19.8% | 36.1% | 10.79% | 2.76 gh B | – | 2.63 j AB g | – | – | – | – | – | – | –
8 | O=C(O)c1ccccc1O [Salicylic acid] | 26.60 fg C % | 25.06 g C % | 23% | 27.4% | 29.77% | 2.17 cd B g | 63.27% | 1.14 bc A g | 23.67% | 19.86% | – | – | – | – | –
9 | C[N+](C)(C)CCCl.O=C([O-])c1cc(Cl)cc(Cl)c1O [[CC][3,5-ClSal]] | 7.79 ab A % | 4.93 abc A % | – | – | 27.51% | 2.24 cde C g | 37.38% | 1.94 ef B g | – | – | 77.4% | 85.7% | 208.3 °C | – | Solubility in Hexane ([4]; Snyder polarity index 0.0): − (insoluble); Solubility in Toluene ([4]; Snyder polarity index 2.3): − (insoluble); Solubility in Isopropanol ([4]; Snyder polarity index 4.3): +/− (of limited solubility); Solubility in Acetone ([4]; Snyder polarity index 5.1): − (insoluble); Solubility in Methanol ([4]; Snyder polarity index 6.6): + (soluble); Solubility in Water ([4]; Snyder polarity index 9.0): +/− (of limited solubility)
10 | C[N+](C)(C)CCCl.O=C([O-])c1cccc(Cl)c1O [[CC][3-ClSal]] | 2.52 a AB % | 1.39 a A % | – | – | 15.97% | 2.60 fgh D | 36.68% | 1.96 ef C g | 0.79% | 0.27% | 92.7% | 96.0% | 196.2 °C | 136.1 °C | Solubility in Hexane ([4]; Snyder polarity index 0.0): − (insoluble); Solubility in Toluene ([4]; Snyder polarity index 2.3): − (insoluble); Solubility in Isopropanol ([4]; Snyder polarity index 4.3): +/− (of limited solubility); Solubility in Acetone ([4]; Snyder polarity index 5.1): − (insoluble); Solubility in Methanol ([4]; Snyder polarity index 6.6): + (soluble); Solubility in Water ([4]; Snyder polarity index 9.0): +/− (of limited solubility)
11 | C[N+](C)(C)CCCl [[CC][Cl], Chlormequat chloride, reference compound] | – | – | – | – | 24.00% | 2.35 def B g | – | 2.08 fgh A | – | – | – | – | 255.0 °C | 259.8 °C | Solubility in Isopropanol [4]: remained insoluble; solubility ([4]; organic solvent or mixture, Solubility in Acetone, Snyder polarity index 5.1): < 33.3 mg/mL; solubility ([4]; organic solvent or mixture, Solubility in Hexane, Snyder polarity index 0.0): < 33.3 mg/mL; solubility ([4]; organic solvent or mixture, Solubility in Isopropanol, Snyder polarity index 4.3): < 33.3 mg/mL; solubility ([4]; organic solvent or mixture, Solubility in Methanol, Snyder polarity index 6.6): > 100 mg/mL; solubility ([4]; organic solvent or mixture, Solubility in Toluene, Snyder polarity index 2.3): < 33.3 mg/mL; solubility ([4]; water, Solubility in Water, Snyder polarity index 9.0): > 100 mg/mL
12 | C[N+](C)(C)CCCl.O=C([O-])c1ccncc1 [[CC][IsoNic]] | 24.51 ef A % | 21.48 g A % | – | – | 15.70% | 2.60 fgh C | 35.65% | 1.99 efg AB | – | – | 29.0% | 37.8% | 164.3 °C | 85.3 °C | –
13 | C[N+](C)(C)CCCl.O=C([O-])c1cccnc1 [[CC][Nic]] | 19.70 de B % | 11.52 def A % | – | – | 8.20% | 2.84 hi B g | 26.16% | 2.28 hi A g | – | – | 43.0% | 66.7% | 166.9 °C | 89.9 °C | Phytotoxic effect on radish sprout mass ([2]; 125 mg/L): no phytotoxic effect; Phytotoxic effect on radish sprout mass ([2]; 250 mg/L): significant decrease in the radish sprout mass
